Measurements: patent US12692236B2, “Small molecule modulators of sigma-1 and sigma-2 receptors and uses thereof” (Northwestern University, priority 2018, dated 2026)

Tests used:
sigma-1 receptor = sigma-1 receptor (Homo sapiens, UniProt Q99720); assay: sigma-1 receptor binding affinity (Ki); settings: for Ki: read-out: Ki (nM) Sigma-1
sigma-2 receptor = sigma-2 receptor (Homo sapiens, UniProt Q5BJF2); assay: sigma-2 receptor binding affinity (Ki); settings: for Ki: read-out: Ki (nM) Sigma-2
sigma-2 receptor, sequence (Q5BJF2 whole entry, species assumed): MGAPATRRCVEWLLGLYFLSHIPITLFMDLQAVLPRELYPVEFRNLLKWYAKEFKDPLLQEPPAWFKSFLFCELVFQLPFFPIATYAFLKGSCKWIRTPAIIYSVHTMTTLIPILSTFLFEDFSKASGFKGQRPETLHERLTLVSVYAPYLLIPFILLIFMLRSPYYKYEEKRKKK

sigma-1 receptor, sequence (Q99720 whole entry, species assumed): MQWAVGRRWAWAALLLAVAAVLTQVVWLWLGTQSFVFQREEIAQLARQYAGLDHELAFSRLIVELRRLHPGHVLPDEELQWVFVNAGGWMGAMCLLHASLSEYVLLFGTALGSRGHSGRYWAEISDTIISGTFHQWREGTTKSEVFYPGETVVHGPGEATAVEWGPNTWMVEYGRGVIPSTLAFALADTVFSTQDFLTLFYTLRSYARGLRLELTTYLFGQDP

Row | Ki (sigma-1 receptor) [nM] | Ki (sigma-2 receptor) [nM] | Compound | other results
1 | 159 | > 10000 | O=C(c1nn(-c2ccccc2)c2c1CC(NCc1ccc(F)cc1)CC2)N1CCCCC1 (stereo not drawn) [compound 2001685, (5-((4-Fluorobenzyl)amino)-1-phenyl-4,5,6,7-tetrahydro-1H-indazol-3-yl)(piperidin-1-yl)methanone] | improvement in potency against sigma-1 receptor (sigma-1 receptor; relative to the comparator analog named in the text): over 4 fold
2 | 131 | 91 | O=C(c1nn(-c2ccccc2)c2c1CC(NCCc1ccc(F)cc1)CC2)N1CCCCC1 (stereo not drawn) [compound 201667, (5-((4-Fluorophenethyl)amino)-1-phenyl-4,5,6,7-tetrahydro-1H-indazol-3-yl)(piperidin-1-yl)methanone] | selectivity sigma-1 versus sigma-2 (in words) (sigma-1 receptor): equipotent inhibitor against both sigma receptors
3 | 226 | 296 | O=C(c1c2c(nn1-c1ccccc1)CCC(NCCc1ccncc1)C2)N1CCCCC1 (stereo not drawn) [compound 201670, (2-Phenyl-5-((2-(pyridin-4-yl)ethyl)amino)-4,5,6,7-tetrahydro-2H-indazol-3-yl)(piperidin-1-yl)methanone] | –
4 | 547 | 349 | O=C(c1nn(-c2ccccc2)c2c1CC(NCCc1ccc3c(c1)OCO3)CC2)N1CCCCC1 (stereo not drawn) [compound 201679, (5-((2-(Benzo[d][1,3]dioxol-5-yl)ethyl)amino)-1-phenyl-4,5,6,7-tetrahydro-1H-indazol-3-yl)(piperidin-1-yl)methanone] | –
5 | 337 | > 10000 | O=C(c1nn(-c2ccccc2)c2c1CC(NCCc1ccc(C(F)(F)F)cc1)CC2)N1CCCCC1 (stereo not drawn) [compound 201684, (1-Phenyl-5-((4-(trifluoromethyl)phenethyl)amino)-4,5,6,7-tetrahydro-1H-indazol-3-yl)(piperidin-1-yl)methanone] | –

The next lines start with the molecule.

Row | Compound | Ki (sigma-1 receptor) [nM] | Ki (sigma-2 receptor) [nM] | other results
6 | CCCn1nc(C(=O)N2CCCCC2)c2c1CCC(NCCc1ccncc1)C2 (stereo not drawn) [compound 200390, Piperidin-1-yl(1-propyl-5-((2-(pyridin-4-yl)ethyl)amino)-4,5,6,7-tetrahydro-1H-indazol-3-yl)methanone] | – | – | activity against sigma-1 (in words) (sigma-1 receptor): eliminated the activity; activity against sigma-2 (in words) (sigma-2 receptor): eliminated the activity
7 | CCCn1nc(C(=O)N2CCCCC2)c2c1CCC(Nc1ccc(Oc3ccccc3)cc1)C2 (stereo not drawn) [compound 200702] | > 10000 | 310 | –
8 | CCCn1nc(C(=O)N2CCCCC2)c2c1CCC(NCCc1ccc(O)cc1)C2 (stereo not drawn) [compound 200643, (5-((4-Hydroxyphenethyl)amino)-1-propyl-4,5,6,7-tetrahydro-1H-indazol-3-yl)(piperidin-1-yl)methanone] | > 10000 | 273 | selectivity of sigma-2 ligands against sigma-1 (in words) (sigma-2 receptor): excellent selectivity; more potent against sigma-2 (sigma-2 receptor; relative to earlier dimethyl amide analogs): about 8 fold
9 | O=C(c1nn(-c2ccccc2)c2c1CC(NCc1ccccc1)CC2)N1CCCCC1 (stereo not drawn) [compound 201665, (5-(Benzylamino)-1-phenyl-4,5,6,7-tetrahydro-1H-indazol-3-yl)(piperidin-1-yl)methanone] | 710 | 492 | –
10 | CCCn1nc(C(=O)N2CCCCC2)c2c1CCC(N1CCN(c3ccc([N+](=O)[O-])cc3)CC1)C2 (stereo not drawn) [compound 200709, (5-(4-(4-Nitrophenyl)piperazin-1-yl)-1-propyl-4,5,6,7-tetrahydro-1H-indazol-3-yl)(piperidin-1-yl)methanone] | 1590 | 526 | –
11 | CCCn1nc(C(=O)N(C)C)c2c1CCC(NCCc1ccc(C(F)(F)F)cc1)C2 (stereo not drawn) [compound 200878, N,N-dimethyl-1-propyl-5-((4-(trifluoromethyl)phenethyl)amino)-4,5,6,7-tetrahydro-1H-indazole-3-carboxamide] | 1400 | 595 | –
12 | CCCn1nc(C(=O)N(C)C)c2c1CCC(NS(=O)(=O)c1ccc(F)cc1)C2 (stereo not drawn) [compound 200629, 5-((4-fluorophenyl)sulfonamido)-N,N-dimethyl-1-propyl-4,5,6,7-tetrahydro-1H-indazole-3-carboxamide] | > 10000 | > 10000 | activity against sigma-1 (in words) (sigma-1 receptor): did not restore the activity; activity against sigma-2 (in words) (sigma-2 receptor): did not restore the activity
